In ChEMBL document CHEMBL2073905, “Interactions of a nonpeptidic drug, valacyclovir, with the human intestinal peptide transporter (hPEPT1) expressed in a mammalian cell line” (J Pharmacol Exp Ther, 1999):
Where a SMILES comes first, the peptide text is derived from it. [ ]: non-standard residue; d: D form. Sar = CNCC(=O)O

Key:
Type in all cases: functional, cell-based
[1] = target: T1, Solute carrier family 15 member 1 (Homo sapiens) (UniProt P46059); test: TP_TRANSPORTER: inhibition of VACV uptake (VACV: 20 uM, Gly-Gly: 10000 uM) in PEPT1-expressing CHO cells
T1 sequence (whole entry): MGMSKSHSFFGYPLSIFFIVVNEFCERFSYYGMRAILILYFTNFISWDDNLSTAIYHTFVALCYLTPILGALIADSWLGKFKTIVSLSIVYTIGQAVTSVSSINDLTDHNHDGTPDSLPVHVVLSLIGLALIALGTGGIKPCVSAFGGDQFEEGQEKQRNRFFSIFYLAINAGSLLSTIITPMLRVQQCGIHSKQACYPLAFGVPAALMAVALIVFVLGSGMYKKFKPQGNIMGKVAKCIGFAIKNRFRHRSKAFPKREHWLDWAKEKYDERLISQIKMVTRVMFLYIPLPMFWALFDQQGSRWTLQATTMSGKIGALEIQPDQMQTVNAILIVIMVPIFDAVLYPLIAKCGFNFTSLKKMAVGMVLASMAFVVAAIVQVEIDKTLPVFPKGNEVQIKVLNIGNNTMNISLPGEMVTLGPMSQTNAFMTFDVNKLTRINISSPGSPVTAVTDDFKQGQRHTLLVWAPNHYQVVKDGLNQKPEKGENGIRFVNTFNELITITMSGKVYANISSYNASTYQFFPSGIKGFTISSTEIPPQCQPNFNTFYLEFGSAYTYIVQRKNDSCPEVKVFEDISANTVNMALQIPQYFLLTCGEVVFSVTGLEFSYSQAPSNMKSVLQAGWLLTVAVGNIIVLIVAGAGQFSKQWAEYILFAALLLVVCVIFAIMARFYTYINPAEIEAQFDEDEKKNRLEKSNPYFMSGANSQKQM

[2] = target: T1, Solute carrier family 15 member 1 (Homo sapiens); test: TP_TRANSPORTER: inhibition of VACV uptake (VACV: 20 uM, Gly-Leu: 10000 uM) in PEPT1-expressing CHO cells
[3] = target: T1, Solute carrier family 15 member 1 (Homo sapiens); test: TP_TRANSPORTER: inhibition of VACV uptake (VAVC: 20 uM, Ampicillin: 10000 uM) in PEPT1-expressing CHO cells
[4] = target: T1, Solute carrier family 15 member 1 (Homo sapiens); test: TP_TRANSPORTER: inhibition of VACV uptake (VACV: 20 uM, Leu-Leu: 10000 uM) in PEPT1-expressing CHO cells
[5] = target: T1, Solute carrier family 15 member 1 (Homo sapiens); test: TP_TRANSPORTER: inhibition of VACV uptake (VACV: 20 uM, Cephalexin: 10000 uM) in PEPT1-expressing CHO cells
[6] = target: T2, Solute carrier family 15 member 1 (Homo sapiens, UniProt P46059); test: TP_TRANSPORTER: inhibition of VACV uptake in PEPT1-expressing CHO cells
T2 sequence (P46059 whole entry): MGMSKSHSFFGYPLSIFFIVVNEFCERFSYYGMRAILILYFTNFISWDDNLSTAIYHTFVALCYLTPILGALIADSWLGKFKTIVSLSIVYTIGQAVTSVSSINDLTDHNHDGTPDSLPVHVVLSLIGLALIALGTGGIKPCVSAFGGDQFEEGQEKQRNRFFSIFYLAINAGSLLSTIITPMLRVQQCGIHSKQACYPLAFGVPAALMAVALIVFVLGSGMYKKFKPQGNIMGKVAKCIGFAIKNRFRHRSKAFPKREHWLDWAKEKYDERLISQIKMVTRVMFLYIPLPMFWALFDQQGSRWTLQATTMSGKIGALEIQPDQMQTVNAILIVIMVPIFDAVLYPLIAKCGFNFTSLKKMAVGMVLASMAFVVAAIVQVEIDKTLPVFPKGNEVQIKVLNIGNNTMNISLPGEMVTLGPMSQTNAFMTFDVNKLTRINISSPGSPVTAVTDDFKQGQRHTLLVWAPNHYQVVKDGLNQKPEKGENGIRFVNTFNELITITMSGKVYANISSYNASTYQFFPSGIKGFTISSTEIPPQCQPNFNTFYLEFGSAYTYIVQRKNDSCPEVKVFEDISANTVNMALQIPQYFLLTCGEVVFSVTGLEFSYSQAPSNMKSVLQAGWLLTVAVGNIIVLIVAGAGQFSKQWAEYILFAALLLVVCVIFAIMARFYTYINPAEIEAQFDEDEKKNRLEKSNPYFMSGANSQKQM

[7] = substrate: CN(CC(=O)O)C(=O)CN; test: (§1) TP_TRANSPORTER: uptake in PEPT1-expressing CHO cells
[8] = substrate: CC(C)[C@H](N)C(=O)OCCOCn1cnc2c(=O)nc(N)[nH]c21; test: as §1

NCC(=O)NCC(=O)O (H-Gly-Gly-OH)
inhibition [1]: > 80%

CC(C)C[C@H](NC(=O)CN)C(=O)O
inhibition [2]: > 80%

CC1(C)S[C@@H]2[C@H](NC(=O)[C@H](N)c3ccccc3)C(=O)N2[C@H]1C(=O)O
inhibition [3]: 50%

CC(C)C[C@H](NC(=O)[C@@H](N)CC(C)C)C(=O)O
inhibition [4]: > 80%

CC1=C(C(=O)O)N2C(=O)[C@@H](NC(=O)[C@H](N)c3ccccc3)[C@H]2SC1
inhibition [5]: 50%

CN(CC(=O)O)C(=O)CN [GLYCYLSARCOSINE] (H-Gly-[Sar]-OH)
Ki [6]: 12.8 mM

CC1=C(C(=O)O)N2C(=O)[C@@H](NC(=O)[C@H](N)c3ccc(O)cc3)[C@H]2SC1 [CEFADROXIL]
Ki [6]: 9.1 mM

B1: Solute carrier family 15 member 1 (Homo sapiens), P46059 (protein)
chain: MGMSKSHSFFGYPLSIFFIVVNEFCERFSYYGMRAILILYFTNFISWDDNLSTAIYHTFVALCYLTPILGALIADSWLGKFKTIVSLSIVYTIGQAVTSVSSINDLTDHNHDGTPDSLPVHVVLSLIGLALIALGTGGIKPCVSAFGGDQFEEGQEKQRNRFFSIFYLAINAGSLLSTIITPMLRVQQCGIHSKQACYPLAFGVPAALMAVALIVFVLGSGMYKKFKPQGNIMGKVAKCIGFAIKNRFRHRSKAFPKREHWLDWAKEKYDERLISQIKMVTRVMFLYIPLPMFWALFDQQGSRWTLQATTMSGKIGALEIQPDQMQTVNAILIVIMVPIFDAVLYPLIAKCGFNFTSLKKMAVGMVLASMAFVVAAIVQVEIDKTLPVFPKGNEVQIKVLNIGNNTMNISLPGEMVTLGPMSQTNAFMTFDVNKLTRINISSPGSPVTAVTDDFKQGQRHTLLVWAPNHYQVVKDGLNQKPEKGENGIRFVNTFNELITITMSGKVYANISSYNASTYQFFPSGIKGFTISSTEIPPQCQPNFNTFYLEFGSAYTYIVQRKNDSCPEVKVFEDISANTVNMALQIPQYFLLTCGEVVFSVTGLEFSYSQAPSNMKSVLQAGWLLTVAVGNIIVLIVAGAGQFSKQWAEYILFAALLLVVCVIFAIMARFYTYINPAEIEAQFDEDEKKNRLEKSNPYFMSGANSQKQM
Km [7]: 3130 µM
Km [8]: 1640 µM
